# Experimental data from patent US20110319411A1, “ISOINDOLINONE AND RELATED ANALOGS AS SIRTUIN MODULATORS” (Sirtis Pharmaceuticals, Inc., priority 2008, published 2011).
# Molecular target: T1, SIRT1 (Homo sapiens, UniProt Q96EB6)
# T1 construct: made in house; host or cells: E. coli BL21(DE3)
# T1 sequence (Q96EB6 1-747): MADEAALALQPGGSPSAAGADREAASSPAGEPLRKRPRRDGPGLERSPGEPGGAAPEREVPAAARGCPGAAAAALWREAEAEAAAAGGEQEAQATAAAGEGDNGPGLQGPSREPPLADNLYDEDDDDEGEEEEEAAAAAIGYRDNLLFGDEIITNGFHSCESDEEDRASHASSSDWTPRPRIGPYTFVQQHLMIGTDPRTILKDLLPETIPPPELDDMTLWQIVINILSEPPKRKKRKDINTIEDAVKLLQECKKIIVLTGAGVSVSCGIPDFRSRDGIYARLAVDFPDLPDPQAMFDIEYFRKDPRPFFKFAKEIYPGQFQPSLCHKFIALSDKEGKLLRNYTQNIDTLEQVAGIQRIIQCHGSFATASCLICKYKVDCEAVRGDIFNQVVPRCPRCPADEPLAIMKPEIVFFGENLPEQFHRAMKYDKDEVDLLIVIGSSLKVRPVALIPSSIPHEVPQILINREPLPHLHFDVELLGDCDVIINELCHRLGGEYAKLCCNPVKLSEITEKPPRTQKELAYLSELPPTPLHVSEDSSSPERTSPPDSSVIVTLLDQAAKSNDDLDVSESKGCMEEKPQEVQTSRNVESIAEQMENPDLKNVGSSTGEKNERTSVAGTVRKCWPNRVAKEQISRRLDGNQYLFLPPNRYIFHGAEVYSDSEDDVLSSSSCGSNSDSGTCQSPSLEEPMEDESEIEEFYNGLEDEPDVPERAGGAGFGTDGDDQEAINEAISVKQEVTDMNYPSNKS
# Assay: mass spectrometry based assay to identify modulators of SIRT1 activity
# Format: biochemical
# Conditions: 10 nM SIRT1, 0.5 μM peptide substrate, 120 μM βNAD+, 25 minutes at 25° C.; for Emax: 25 min, read-out: % FOLD ACT. (percent maximum fold activation)
# Source text: A mass spectrometry based assay was used to identify modulators of SIRT1 activity. The mass spectrometry based assay utilizes a peptide having 20 amino acid residues as follows: Ac-EE-K(biotin)-GQSTSSHSK(Ac)NleSTEG-K(5TMR)-EE-NH2 (SEQ ID NO: 1) wherein K(Ac) is an acetylated lysine residue and Nle is a norleucine. The peptide is labeled with the fluorophore 5TMR (excitation 540 nm/emission 580 nm) at the C-terminus. The sequence of the peptide substrate is based on p53 with several modifications. In addition, the methionine residue naturally present in the sequence was replaced with the norleucine because the methionine may be susceptible to oxidation during synthesis and purification.
# The mass spectrometry assay is conducted as follows: 0.5 μM peptide substrate and 120 μM βNAD^+ is incubated with 10 nM SIRT1 for 25 minutes at 25° C. in a reaction buffer (50 mM Tris-acetate pH 8, 137 mM NaCl, 2.7 mM KCl, 1 mM MgCl2, 5 mM DTT, 0.05% BSA). Test compounds may be added to the reaction as described above. The SirT1 gene is cloned into a T7-promoter containing vector and transformed into BL21(DE3). After the 25 minute incubation with SIRT1, 10 μL of 10% formic acid is added to stop the reaction. Reactions are sealed and frozen for later mass spec analysis. Determination of the mass of the substrate peptide allows for precise determination of the degree of acetylation (i.e. starting material) as compared to deacetylated peptide (product).
# A control for inhibition of sirtuin activity is conducted by adding 1 μL of 500 mM nicotinamide as a negative control at the start of the reaction (e.g., permits determination of maximum sirtuin inhibition). A control for activation of sirtuin activity is conducted using 10 nM of sirtuin protein, with 1 μL of DMSO in place of compound, to determine the amount of deacetylation of the substrate at a given timepoint within the linear range of the assay. This timepoint is the same as that used for test compounds and, within the linear range, the endpoint represents a change in velocity.
# For the above assay, SIRT1 protein was expressed and purified as follows. The SirT1 gene was cloned into a T7-promoter containing vector and transformed into BL21(DE3). The protein was expressed by induction with 1 mM IPTG as an N-terminal His-tag fusion protein at 18° C. overnight and harvested at 30,000×g. Cells were lysed with lysozyme in lysis buffer (50 mM Tris-HCl, 2 mM Tris[2-carboxyethyl]phosphine (TCEP), 10 μM ZnCl2, 200 mM NaCl) and further treated with sonication for 10 min for complete lysis. The protein was purified over a Ni-NTA column (Amersham) and fractions containing pure protein were pooled, concentrated and run over a sizing column (Sephadex S200 26/60 global). The peak containing soluble protein was collected and run on an Ion-exchange column (MonoQ). Gradient elution (200 mM-500 mM NaCl) yielded pure protein. This protein was concentrated and dialyzed against dialysis buffer (20 mM Tris-HCl, 2 mM TCEP) overnight. The protein was aliquoted and frozen at −80° C. until further use.
# Sirtuin modulating compounds that activated SIRT1 were identified using the assay described above and are shown below in Table 1. The EC1.5 values represent the concentration of test compounds that result in 150% activation of SIRT1. The EC1.5 values for the activating compounds are represented by A (EC1.5<10 μM), B (EC1-5 10-25 μM), C (EC1.5>25 μM). The percent maximum fold activation is represented by A (Fold activation >200%) or B (Fold Activation <200%).
EC1.5 (concentration of test compound that results in 150% activation of SIRT1),Emax [%],Compound
C (EC1.5>25 μM),< 200,O=C(Nc1cccc2c1C(=O)N(c1cccc(OC(F)(F)F)c1)C2)c1cccc(OCC(O)CO)n1 (stereo not shown) [Compound 131]
A (EC1.5<10 μM),< 200,O=C(Nc1cccc2c1C(=O)N(c1cccc(OC(F)(F)F)c1)C2)c1cccc(CN2CCOCC2)n1 [Compound 132]
C (EC1.5>25 μM),< 200,O=C(Nc1cccc2c1C(=O)N(c1cccc(C(F)(F)F)c1)C2)c1nccs1 [Compound 133]
C (EC1.5>25 μM),< 200,O=C(Nc1cccc2c1C(=O)N(c1cccc(C(F)(F)F)c1)C2)c1cccnn1 [Compound 134]
C (EC1.5>25 μM),< 200,O=C(Nc1cccc2c1C(=O)N(c1cccc(C(F)(F)F)c1)C2)c1cccc(N2CCOCC2)n1 [Compound 135]
C (EC1.5>25 μM),< 200,O=C(Nc1cccc2c1C(=O)N(c1cccc(C(F)(F)F)c1)C2)c1cccc(N2CCCC2)n1 [Compound 136]
C (EC1.5>25 μM),< 200,O=C(Nc1cccc2c1C(=O)N(c1cccc(C(F)(F)F)c1)C2)c1cncc(N2CCOCC2)n1 [Compound 137]
A (EC1.5<10 μM),> 200,O=C(Nc1cccc2c1C(=O)N(c1cccc(C(F)(F)F)c1)C2)c1cccc(C2CCNC2)c1 (stereo not shown) [Compound 138]
